# Source: ChEMBL document CHEMBL1275550, “In vitro activity of doripenem, a carbapenem for the treatment of challenging infections caused by gram-negative bacteria, against recent clinical isolates from the United States” (2008)
# Columns and labels:
# Pseudomonas aeruginosa [1] = assay: Antimicrobial activity against imipenem susceptible Pseudomonas aeruginosa by broth microdilution method; format: functional
# Pseudomonas aeruginosa [2] = assay: Antimicrobial activity against imipenem non-susceptible Pseudomonas aeruginosa assessed as intermediate isolate by broth microdilution method; format: functional
# Enterobacter cloacae [3] = assay: Antimicrobial activity against Enterobacter cloacae with nonderepressed AmpC beta-lactamsae assessed as intermediate isolate by broth microdilution method; format: functional
# Pseudomonas aeruginosa [4] = assay: Antimicrobial activity against Pseudomonas aeruginosa by broth microdilution method; format: functional
# Escherichia coli [5] = assay: Antimicrobial activity against Escherichia coli assessed as susceptible isolate by broth microdilution method; format: functional
# Pseudomonas aeruginosa [6] = assay: Antimicrobial activity against Ceftazidime non-susceptible Pseudomonas aeruginosa assessed as susceptible isolate by broth microdilution method; format: functional
# Serratia marcescens [7] = assay: Antimicrobial activity against Serratia marcescens by broth microdilution method; format: functional
# Escherichia coli [8] = assay: Antimicrobial activity against Non-ESBL Escherichia coli by broth microdilution method; format: functional
# Pseudomonas aeruginosa [9] = assay: Antimicrobial activity against imipenem non-susceptible Pseudomonas aeruginosa by broth microdilution method; format: functional
# Acinetobacter [10] = assay: Antimicrobial activity against imipenem susceptible Acinetobacter by broth microdilution method; format: functional
# Escherichia coli [11] = assay: Antimicrobial activity against ESBL producing Escherichia coli assessed as susceptible isolate by broth microdilution method; format: functional
# Pseudomonas aeruginosa [12] = assay: Antimicrobial activity against Ceftazidime non-susceptible Pseudomonas aeruginosa by broth microdilution method; format: functional
# Serratia marcescens [13] = assay: Antimicrobial activity against Ceftazidime non-susceptible Serratia marcescens assessed as intermediate isolate by broth microdilution method; format: functional
# Enterobacteriaceae [14] = assay: Antimicrobial activity against ceftazidime-susceptible Enterobacteriaceae assessed as susceptible isolate by broth microdilution method; format: functional
# Escherichia coli [15] = assay: Antimicrobial activity against ESBL producing Escherichia coli by broth microdilution method; format: functional
# Pseudomonas aeruginosa [16] = assay: Antimicrobial activity against Pseudomonas aeruginosa isolated from ICU patient assessed as intermediate isolate by broth microdilution method
# Proteus mirabilis [17] = assay: Antimicrobial activity against ESBL producing Proteus mirabilis assessed as susceptible isolate by broth microdilution method; format: functional
# Enterobacter cloacae [18] = assay: Antimicrobial activity against Enterobacter cloacae assessed as susceptible isolate by broth microdilution method; format: functional
# Escherichia coli [19] = assay: Antimicrobial activity against ESBL producing Escherichia coli assessed as intermediate isolate by broth microdilution method; format: functional
# Serratia marcescens [20] = assay: Antimicrobial activity against Ceftazidime non-susceptible Serratia marcescens by broth microdilution method; format: functional
# Escherichia coli [21] = assay: Antimicrobial activity against Non-ESBL Escherichia coli assessed as intermediate isolate by broth microdilution method; format: functional
# Enterobacteriaceae [22] = assay: Antimicrobial activity against Enterobacteriaceae assessed as susceptible isolate by broth microdilution method; format: functional
# Acinetobacter [23] = assay: Antimicrobial activity against imipenem non-susceptible Acinetobacter assessed as resistant isolate by broth microdilution method; format: functional
# Pseudomonas aeruginosa [24] = assay: Antimicrobial activity against Pseudomonas aeruginosa isolated from ICU patient assessed as resistant isolate by broth microdilution method
# Proteus mirabilis [25] = assay: Antimicrobial activity against Non-ESBL Proteus mirabilis by broth microdilution method; format: functional
# Serratia marcescens [26] = assay: Antimicrobial activity against Ceftazidime susceptible Serratia marcescens assessed as susceptible isolate by broth microdilution method; format: functional
# Pseudomonas aeruginosa [27] = assay: Antimicrobial activity against Pseudomonas aeruginosa isolated from ICU patient assessed as susceptible isolate by broth microdilution method
# Klebsiella pneumoniae [28] = assay: Antimicrobial activity against Non-ESBL Klebsiella pneumoniae assessed as susceptible isolate by broth microdilution method; format: functional
# Pseudomonas aeruginosa [29] = assay: Antimicrobial activity against Ceftazidime susceptible Pseudomonas aeruginosa assessed as resistant isolate by broth microdilution method; format: functional
# Acinetobacter [30] = assay: Antimicrobial activity against imipenem non-susceptible Acinetobacter assessed as susceptible isolate by broth microdilution method; format: functional
# Enterobacteriaceae [31] = assay: Antimicrobial activity against Enterobacteriaceae by broth microdilution method; format: functional
# Citrobacter [32] = assay: Antimicrobial activity against Citrobacter assessed as susceptible isolate by broth microdilution method; format: functional
# Klebsiella pneumoniae [33] = assay: Antimicrobial activity against ESBL producing Klebsiella pneumoniae assessed as intermediate isolate by broth microdilution method; format: functional
# Pseudomonas aeruginosa [34] = assay: Antimicrobial activity against Ceftazidime susceptible Pseudomonas aeruginosa by broth microdilution method; format: functional
# Citrobacter [35] = assay: Antimicrobial activity against Citrobacter by broth microdilution method; format: functional
# Pseudomonas aeruginosa [36] = assay: Antimicrobial activity against Pseudomonas aeruginosa assessed as susceptible isolate by broth microdilution method; format: functional
# Acinetobacter [37] = assay: Antimicrobial activity against Acinetobacter by broth microdilution method; format: functional
# Pseudomonas aeruginosa [38] = assay: Antimicrobial activity against imipenem susceptible Pseudomonas aeruginosa assessed as intermediate isolate by broth microdilution method; format: functional
# Enterobacter cloacae [39] = assay: Antimicrobial activity against Enterobacter cloacae by broth microdilution method; format: functional
# Pseudomonas aeruginosa [40] = assay: Antimicrobial activity against imipenem susceptible Pseudomonas aeruginosa assessed as susceptible isolate by broth microdilution method; format: functional
# Acinetobacter [41] = assay: Antimicrobial activity against imipenem non-susceptible Acinetobacter by broth microdilution method; format: functional
# Serratia marcescens [42] = assay: Antimicrobial activity against Ceftazidime non-susceptible Serratia marcescens assessed as susceptible isolate by broth microdilution method; format: functional
# Enterobacteriaceae [43] = assay: Antimicrobial activity against Ceftazidime non-susceptible Enterobacteriaceae by broth microdilution method; format: functional
# Acinetobacter [44] = assay: Antimicrobial activity against Acinetobacter assessed as susceptible isolate by broth microdilution method; format: functional
# Streptococcus pneumoniae = assay: Antimicrobial activity against penicillin-susceptible Streptococcus pneumoniae by broth microdilution method; format: functional; conditions: Streptococcus pneumoniae
# Proteus mirabilis [45] = assay: Antimicrobial activity against ESBL producing Proteus mirabilis by broth microdilution method; format: functional
# Citrobacter [46] = assay: Antimicrobial activity against Citrobacter with derepressed AmpC beta-lactamsae assessed as susceptible isolate by broth microdilution method; format: functional
# Escherichia coli [47] = assay: Antimicrobial activity against Escherichia coli by broth microdilution method; format: functional
# Enterobacter cloacae [48] = assay: Antimicrobial activity against Enterobacter cloacae with nonderepressed AmpC beta-lactamsae by broth microdilution method; format: functional
# Enterobacteriaceae [49] = assay: Antimicrobial activity against Ceftazidime non-susceptible Enterobacteriaceae assessed as resistant isolate by broth microdilution method; format: functional
# Serratia marcescens [50] = assay: Antimicrobial activity against Ceftazidime susceptible Serratia marcescens by broth microdilution method; format: functional
# Enterobacteriaceae [51] = assay: Antimicrobial activity against ceftazidime-susceptible Enterobacteriaceae assessed as resistant isolate by broth microdilution method; format: functional
# Enterobacteriaceae [52] = assay: Antimicrobial activity against Ceftazidime non-susceptible Enterobacteriaceae assessed as intermediate isolate by broth microdilution method; format: functional
# Enterobacteriaceae [53] = assay: Antimicrobial activity against ceftazidime-susceptible Enterobacteriaceae by broth microdilution method; format: functional
structure (smiles),measurement,setting,value
C[C@@H](O)[C@H]1C(=O)N2C(C(=O)O)=C(S[C@@H]3CN[C@H](C(=O)N(C)C)C3)[C@H](C)[C@H]12 [MEROPENEM],MIC50,Pseudomonas aeruginosa [1],0.5 µg/mL
same,MIC90,Pseudomonas aeruginosa [1],2 µg/mL
same,Activity,Pseudomonas aeruginosa [2],16.9%
same,Activity,Enterobacter cloacae [3],0.5%
same,MIC50,Pseudomonas aeruginosa [4],1 µg/mL
same,MIC90,Pseudomonas aeruginosa [4],16 µg/mL
same,Activity,Escherichia coli [5],100%
same,Activity,Pseudomonas aeruginosa [6],60.9%
same,MIC50,Serratia marcescens [7],0.12 µg/mL
same,MIC90,Serratia marcescens [7],0.25 µg/mL
same,MIC50,Escherichia coli [8],0.03 µg/mL
same,MIC90,Escherichia coli [8],0.06 µg/mL
same,MIC50,Pseudomonas aeruginosa [9],8 µg/mL
same,MIC90,Pseudomonas aeruginosa [9],32 µg/mL
same,MIC50,Acinetobacter [10],1 µg/mL
same,MIC90,Acinetobacter [10],4 µg/mL
same,Activity,Escherichia coli [11],100%
same,MIC50,Pseudomonas aeruginosa [12],4 µg/mL
same,MIC90,Pseudomonas aeruginosa [12],32 µg/mL
same,Activity,Serratia marcescens [13],0%
same,Activity,Enterobacteriaceae [14],99.6%
same,MIC50,Escherichia coli [15],0.06 µg/mL
same,MIC90,Escherichia coli [15],0.06 µg/mL
same,Activity,Pseudomonas aeruginosa [16],7.9%
same,Activity,Proteus mirabilis [17],100%
same,Activity,Enterobacter cloacae [18],99.6%
same,Activity,Escherichia coli [19],0%
same,MIC50,Serratia marcescens [20],0.25 µg/mL
same,MIC90,Serratia marcescens [20],0.25 µg/mL
same,Activity,Escherichia coli [21],0%
same,Activity,Enterobacteriaceae [22],99.8%
same,Activity,Acinetobacter [23],100%
same,Activity,Pseudomonas aeruginosa [24],18%
same,MIC50,Proteus mirabilis [25],0.12 µg/mL
same,MIC90,Proteus mirabilis [25],0.25 µg/mL
same,Activity,Serratia marcescens [26],99.2%
same,Activity,Pseudomonas aeruginosa [27],74.1%
same,Activity,Klebsiella pneumoniae [28],99.8%
same,Activity,Pseudomonas aeruginosa [29],6.5%
same,Activity,Acinetobacter [30],0%
same,MIC50,Enterobacteriaceae [31],0.06 µg/mL
same,MIC90,Enterobacteriaceae [31],0.12 µg/mL
same,Activity,Citrobacter [32],100%
same,Activity,Klebsiella pneumoniae [33],0%
same,MIC50,Pseudomonas aeruginosa [34],1 µg/mL
same,MIC90,Pseudomonas aeruginosa [34],8 µg/mL
same,MIC50,Citrobacter [35],0.06 µg/mL
same,MIC90,Citrobacter [35],0.12 µg/mL
same,Activity,Pseudomonas aeruginosa [36],85.3%
same,MIC50,Acinetobacter [37],1 µg/mL
same,MIC90,Acinetobacter [37],> 32 µg/mL
same,Activity,Pseudomonas aeruginosa [38],0.7%
same,MIC50,Enterobacter cloacae [39],0.06 µg/mL
same,MIC90,Enterobacter cloacae [39],0.25 µg/mL
same,Activity,Pseudomonas aeruginosa [40],98.5%
same,MIC50,Acinetobacter [41],> 32 µg/mL
same,MIC90,Acinetobacter [41],> 32 µg/mL
same,Activity,Serratia marcescens [42],100%
same,MIC50,Enterobacteriaceae [43],0.12 µg/mL
same,MIC90,Enterobacteriaceae [43],0.5 µg/mL
same,Activity,Acinetobacter [44],80.6%
same,MIC50,Streptococcus pneumoniae,≤ 0.015 µg/mL
same,MIC,Proteus mirabilis [45],0.12 µg/mL
same,Activity,Citrobacter [46],100%
same,MIC50,Escherichia coli [47],0.03 µg/mL
same,MIC90,Escherichia coli [47],0.06 µg/mL
same,MIC50,Enterobacter cloacae [48],0.06 µg/mL
same,MIC90,Enterobacter cloacae [48],0.12 µg/mL
same,Activity,Enterobacteriaceae [49],1.3%
same,MIC50,Serratia marcescens [50],0.12 µg/mL
same,MIC90,Serratia marcescens [50],0.25 µg/mL
same,Activity,Enterobacteriaceae [51],0.1%
same,Activity,Enterobacteriaceae [52],0.7%
same,MIC50,Enterobacteriaceae [53],0.06 µg/mL
same,MIC90,Enterobacteriaceae [53],0.12 µg/mL
